Structures are written as SMILES.

The data set in a line: Release of quercetin in PBS solution from electrospun PLLA scaffold (spectrophotometer). The conditions noted are these: all three samples (quercetin:PLLA 1:16, 1:8, 1:4). Type of data set: physicochemical. As to the method:
Materials and Methods: For fabrication of the scaffolds, an electrospinning apparatus consisting of a high voltage power supply (PCM series, Spellman, NY, USA) was used for charging the polymer solution, a grounded aluminum roto-translating drum (4 mm outer diameter and 13 cm in length) was used for collecting fibers, and a syringe pump (KDS-100, KD Scientific, Holliston, MA, USA) was used for controlling feed flow rate. Rotation was at 750 rpm and translation velocity at 1000 mm/min. The fluid was pushed out from the syringe with a flow rate of 1.1 mL/h, throughout a 0.25 mm diameter needle with a potential difference of 17 kV. All the samples were obtained using about 1.5 mL of initial solution. The polymer solution was prepared with Poly (L-lactide), PLLA, in 1,1,1,3,3,3-Hexafluoro-2-propanol (HFP) 20% (w/v). Three different volumes of quercetin dihydrate in ethanol (5.5 mg/mL) were added to obtain three different quercetin/polymer ratio: 1:4, 1:8, 1:16. […] The mechanical properties of the scaffolds were measured using uniaxial tensile test. The release of quercetin in PBS solution from the scaffold was measured using spectrophotometer at different times up to 75 days. Growth inhibition activity of quercetin against Escherichia coli and Saccharomyces cerevisiae was also assessed.

Turning to `O=c1c(O)c(-c2ccc(O)c(O)c2)oc2cc(O)cc(O)c12` [quercetin], the “amount of quercetin released” value by setting is: (after 75 days of incubation at 4° C.) 50%; (after 75 days of incubation at 20° C.) 50%.

For the origin of these results see patent publication US12698141B2, “Methods for extracting and encapsulating phenolics from food waste, related compositions, and related articles” (BOARD OF TRUSTEES OF MICHIGAN STATE UNIVERSITY, priority 2019, dated 2026).
